Here are results for one substance from patent publication US9663562B2, “Compositions and methods for treating cancer” (Dana-Farber Cancer Institute, Inc., priority 2013, dated 2017).

Common to all, as to assay type: cell-based, human
Assay [1] has as its system MUC16-negative HEK293T cells. Put plainly: Growth of MUC16-negative control cells.
For assay [2], the system named is MUC16-positive ASPC1 pancreatic cancer cells. The experiment in a line: Viable cell number by trypan blue staining, ASPC1 cells. The settings on record: ASPC1, 5 microM, 5 days, vs control. The protocol: (§1) FIG. 1 illustrates the Effects of MUC16 Inhibitor Peptide (IP-16) on MUC16-positive cancer cells. Human MUC16-positive OVCAR3 ovarian cancer (A), MIAPACA2 pancreatic cancer (B) and ASPC1 pancreatic cancer (C) cells were left untreated (Control) or treated with 5 microM IP-16(RRRRRRRR-CLICGVLVTTRRRKK; SEQ ID NO:5) or CP-16 (RRRRRRRR-ALIAGVLVTTRRRKK; SEQ ID NO:6) for 5 days. Viable cell number was determined by trypan blue staining. The results are expressed as cell number (mean+SD of three determinations).
(§2) Viable cell number was determined by trypan blue staining.

Assay [3] concerns MUC16-positive MIAPACA2 pancreatic cancer cells. The experiment in a line: Viable cell number by trypan blue staining, MIAPACA2 cells. The following applies: MIAPACA2, 5 microM, 5 days, vs control. How it is done: as §1, §2
In assay [4] the test system is MUC16-positive OVCAR3 ovarian cancer cells. The experiment in a line: Viable cell number by trypan blue staining, OVCAR3 cells. The following applies: OVCAR3, 5 microM, 5 days, vs control. How it is done:
as §1, §2

Turning to “RRRRRRRR-CLICGVLVTTRRRKK (RRRRRRRRCLICGVLVTTRRRKK) [IP-16]”, the effect on growth result in assay [1] is recorded as “little, if any, effect”. Further, the “cell number (viable cells)” value in assay [2], in assay [3] and in assay [4] was “significantly reduced” in each case.
